From ChEMBL document CHEMBL3779887, “Robenidine Analogues as Gram-Positive Antibacterial Agents” (J Med Chem, 2016)
In brackets after ≈: the same amount, converted by molar mass.

Tests used:
Assay type in all cases: functional
Escherichia coli = experiment: Antibacterial activity against Escherichia coli ATCC 25922 after 20 to 24 hrs
Staphylococcus aureus = experiment: Antibacterial activity against methicillin-resistant Staphylococcus aureus after 20 to 24 hrs
Pseudomonas aeruginosa = experiment: Antibacterial activity against Pseudomonas aeruginosa ATCC 27853 after 20 to 24 hrs
Enterococcus = experiment: Antibacterial activity against vancomycin-resistant Enterococcus after 20 to 24 hrs

Compound	MIC (Escherichia coli)	MIC (Staphylococcus aureus)	MIC (Pseudomonas aeruginosa)	MIC (Enterococcus)
N=C(N/N=C/c1cc(F)ccc1F)N/N=C/c1cc(F)ccc1F	> 400 µM	> 400 µM	> 400 µM	> 400 µM
N=C(N/N=C/c1ccc(O)c(O)c1O)N/N=C/c1ccc(O)c(O)c1O	> 400 µM	161 µM (≈ 58.2 µg/mL)	> 400 µM	161 µM (≈ 58.2 µg/mL)
N=C(N/N=C/c1cccc(Cl)c1)N/N=C/c1cccc(Cl)c1	> 400 µM	8.1 µM (≈ 2.71 µg/mL)	> 400 µM	10.8 µM (≈ 3.61 µg/mL)
N=C(N/N=C/c1ccc(Cl)cc1N)N/N=C/c1ccc(Cl)cc1N	> 400 µM	5 µM (≈ 1.82 µg/mL)	> 400 µM	6.3 µM (≈ 2.29 µg/mL)
N=C(N/N=C/c1cccc(O)c1)N/N=C/c1cccc(O)c1	> 400 µM	192 µM (≈ 57.1 µg/mL)	> 400 µM	288 µM (≈ 85.6 µg/mL)
N=C(N/N=C/c1ccc(F)c(F)c1)N/N=C/c1ccc(F)c(F)c1	> 400 µM	40.1 µM (≈ 13.5 µg/mL)	> 400 µM	10.7 µM (≈ 3.61 µg/mL)
N=C(N/N=C/c1ccccc1O)N/N=C/c1ccccc1O	> 400 µM	36 µM (≈ 10.7 µg/mL)	> 400 µM	240 µM (≈ 71.4 µg/mL)
N=C(N/N=C/c1cc(Cl)cc(Cl)c1)N/N=C/c1cc(Cl)cc(Cl)c1	> 400 µM	> 400 µM	> 400 µM	> 400 µM
N=C(N/N=C/c1ccc(O)cc1)N/N=C/c1ccc(O)cc1	> 400 µM	192 µM (≈ 57.1 µg/mL)	> 400 µM	288 µM (≈ 85.6 µg/mL)
